Values quoted from earlier work in PMC9851200, “Multiparameter phenotypic screening for endogenous TFEB and TFE3 translocation identifies novel chemical series modulating lysosome function” (Autophagy, 2022).

What was measured:
Design in all cases: method as in original PKIS2 published data
[1] = target: kinases (KINOMEscan panel) (Homo sapiens, UniProt Q04759); conditions: kinase PRKCQ; Published KINOMEscan; ref original PKIS2 published data; cited from earlier work
[2] = target: kinases (KINOMEscan panel) (Homo sapiens, UniProt Q99755); conditions: Published KINOMEscan; ref original PKIS2 published data; cited from earlier work
kinases (KINOMEscan panel) (Homo sapiens, UniProt Q99755), sequence (Q99755 whole entry): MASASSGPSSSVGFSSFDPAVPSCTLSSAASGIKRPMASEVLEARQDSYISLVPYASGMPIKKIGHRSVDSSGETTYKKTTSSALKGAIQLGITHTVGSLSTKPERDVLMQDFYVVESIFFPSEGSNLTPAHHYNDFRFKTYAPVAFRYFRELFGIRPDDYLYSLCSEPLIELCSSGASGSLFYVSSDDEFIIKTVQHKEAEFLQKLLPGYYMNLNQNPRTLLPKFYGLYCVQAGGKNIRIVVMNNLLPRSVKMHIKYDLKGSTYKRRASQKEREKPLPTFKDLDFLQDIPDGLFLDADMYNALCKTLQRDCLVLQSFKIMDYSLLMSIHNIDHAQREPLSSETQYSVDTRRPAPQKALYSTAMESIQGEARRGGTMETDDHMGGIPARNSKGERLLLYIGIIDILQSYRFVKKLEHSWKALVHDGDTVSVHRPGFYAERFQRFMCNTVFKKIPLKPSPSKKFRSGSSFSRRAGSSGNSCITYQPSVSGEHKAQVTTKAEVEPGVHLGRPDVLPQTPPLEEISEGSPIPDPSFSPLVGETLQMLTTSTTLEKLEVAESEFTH

[3] = target: T1, kinases (KINOMEscan panel) (Homo sapiens, UniProt Q12866); conditions: kinase MERTK; Published KINOMEscan; ref original PKIS2 published data; cited from earlier work
T1 sequence (Q12866 21-999): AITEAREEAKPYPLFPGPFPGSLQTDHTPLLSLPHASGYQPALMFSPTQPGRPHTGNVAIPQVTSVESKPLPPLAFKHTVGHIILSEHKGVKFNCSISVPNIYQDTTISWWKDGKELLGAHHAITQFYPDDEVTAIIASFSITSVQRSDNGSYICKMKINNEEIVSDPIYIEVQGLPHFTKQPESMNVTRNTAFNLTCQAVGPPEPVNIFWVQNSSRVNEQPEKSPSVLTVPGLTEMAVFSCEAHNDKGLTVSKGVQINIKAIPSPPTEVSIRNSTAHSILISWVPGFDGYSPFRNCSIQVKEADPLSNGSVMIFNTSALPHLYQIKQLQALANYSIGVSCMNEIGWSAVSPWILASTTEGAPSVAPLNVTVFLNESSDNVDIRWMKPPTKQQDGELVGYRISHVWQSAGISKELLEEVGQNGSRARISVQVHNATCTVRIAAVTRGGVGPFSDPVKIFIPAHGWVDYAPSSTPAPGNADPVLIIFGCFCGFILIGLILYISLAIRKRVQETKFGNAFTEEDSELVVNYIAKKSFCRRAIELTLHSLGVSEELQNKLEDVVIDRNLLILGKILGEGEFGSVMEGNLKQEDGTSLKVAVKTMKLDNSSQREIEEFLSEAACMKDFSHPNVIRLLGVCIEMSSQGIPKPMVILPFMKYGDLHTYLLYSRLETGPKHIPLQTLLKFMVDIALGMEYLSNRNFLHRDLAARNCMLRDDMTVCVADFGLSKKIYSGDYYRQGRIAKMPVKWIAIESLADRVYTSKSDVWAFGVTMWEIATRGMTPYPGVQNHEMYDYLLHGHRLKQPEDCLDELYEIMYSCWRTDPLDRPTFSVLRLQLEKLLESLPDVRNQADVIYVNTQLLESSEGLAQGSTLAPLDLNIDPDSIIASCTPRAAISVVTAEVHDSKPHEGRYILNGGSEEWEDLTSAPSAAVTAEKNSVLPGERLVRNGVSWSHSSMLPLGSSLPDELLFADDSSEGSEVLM

[4] = target: T2, kinases (KINOMEscan panel) (Homo sapiens, UniProt P43403); conditions: Published KINOMEscan; ref original PKIS2 published data; cited from earlier work
T2 sequence (P43403 1-619): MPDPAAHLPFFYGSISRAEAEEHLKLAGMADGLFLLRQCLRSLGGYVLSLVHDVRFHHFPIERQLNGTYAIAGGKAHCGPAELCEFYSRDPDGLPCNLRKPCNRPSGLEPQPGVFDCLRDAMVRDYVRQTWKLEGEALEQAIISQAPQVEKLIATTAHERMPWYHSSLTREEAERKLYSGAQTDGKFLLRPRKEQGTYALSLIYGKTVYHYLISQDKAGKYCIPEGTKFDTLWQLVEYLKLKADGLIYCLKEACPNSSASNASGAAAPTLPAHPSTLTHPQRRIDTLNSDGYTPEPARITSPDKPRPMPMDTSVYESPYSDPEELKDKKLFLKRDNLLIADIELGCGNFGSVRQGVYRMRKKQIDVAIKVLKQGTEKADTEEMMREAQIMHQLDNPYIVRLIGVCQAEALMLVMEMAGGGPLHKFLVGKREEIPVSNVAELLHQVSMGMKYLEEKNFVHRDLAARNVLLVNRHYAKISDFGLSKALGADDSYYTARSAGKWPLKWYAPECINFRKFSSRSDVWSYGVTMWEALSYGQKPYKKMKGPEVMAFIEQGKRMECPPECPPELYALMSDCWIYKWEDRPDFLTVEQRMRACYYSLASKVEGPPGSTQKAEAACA

[5] = target: T3, kinases (KINOMEscan panel) (Homo sapiens, UniProt Q92630); conditions: DYRK2; Published KINOMEscan; ref original PKIS2 published data; cited from earlier work
T3 sequence (Q92630 1-601): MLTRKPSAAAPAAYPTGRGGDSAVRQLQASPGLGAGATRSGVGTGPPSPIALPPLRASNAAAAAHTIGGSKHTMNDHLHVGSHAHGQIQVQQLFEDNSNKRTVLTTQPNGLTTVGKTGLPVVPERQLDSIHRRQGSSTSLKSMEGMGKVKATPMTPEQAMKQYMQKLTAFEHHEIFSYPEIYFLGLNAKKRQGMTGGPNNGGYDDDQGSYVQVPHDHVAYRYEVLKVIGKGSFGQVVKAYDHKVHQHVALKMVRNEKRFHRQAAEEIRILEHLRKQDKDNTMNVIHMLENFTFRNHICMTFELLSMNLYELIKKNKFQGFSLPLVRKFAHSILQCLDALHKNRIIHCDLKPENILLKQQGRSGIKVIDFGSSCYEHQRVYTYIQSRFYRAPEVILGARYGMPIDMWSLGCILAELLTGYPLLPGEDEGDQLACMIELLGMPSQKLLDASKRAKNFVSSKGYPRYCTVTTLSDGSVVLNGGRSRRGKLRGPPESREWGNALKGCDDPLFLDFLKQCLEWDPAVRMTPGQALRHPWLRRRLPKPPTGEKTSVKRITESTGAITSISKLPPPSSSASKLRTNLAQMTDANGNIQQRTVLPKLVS

kinases (KINOMEscan panel) (Homo sapiens, UniProt Q04759), sequence (Q04759 whole entry): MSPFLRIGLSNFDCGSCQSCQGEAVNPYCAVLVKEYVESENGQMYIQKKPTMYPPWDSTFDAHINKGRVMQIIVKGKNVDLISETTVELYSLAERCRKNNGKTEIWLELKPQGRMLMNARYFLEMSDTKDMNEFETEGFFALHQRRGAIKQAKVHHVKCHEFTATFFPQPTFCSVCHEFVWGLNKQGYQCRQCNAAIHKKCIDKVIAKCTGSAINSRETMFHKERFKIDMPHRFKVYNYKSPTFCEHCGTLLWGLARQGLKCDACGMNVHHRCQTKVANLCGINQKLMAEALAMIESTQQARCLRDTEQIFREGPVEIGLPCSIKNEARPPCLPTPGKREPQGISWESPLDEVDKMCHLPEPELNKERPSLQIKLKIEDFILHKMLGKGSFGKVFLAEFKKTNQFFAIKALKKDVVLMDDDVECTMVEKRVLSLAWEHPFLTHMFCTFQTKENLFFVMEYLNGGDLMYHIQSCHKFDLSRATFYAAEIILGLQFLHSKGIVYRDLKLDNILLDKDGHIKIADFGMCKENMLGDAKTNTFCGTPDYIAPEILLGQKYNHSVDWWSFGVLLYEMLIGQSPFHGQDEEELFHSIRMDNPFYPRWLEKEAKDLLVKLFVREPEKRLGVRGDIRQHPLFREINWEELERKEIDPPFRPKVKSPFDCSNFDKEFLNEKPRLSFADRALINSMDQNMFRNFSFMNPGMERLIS

Cc1cccc(-c2nc(Nc3ccncc3)c3ccccc3n2)n1 [NK215]
KINOMEscan PRKCQ [1]: 0 | KINOMEscan PIP5K1A [2]: 10 | KINOMEscan MERTK [3]: 9 | KINOMEscan ZAP70 [4]: 0 | KINOMEscan DYRK2 [5]: 0
